Test [1] addresses T1, Metallo-beta-lactamase type 2 (Klebsiella pneumoniae, UniProt C7C422). In words: Inhibition of His-tagged Klebsiella pneumoniae NDM-1 expressed in Escherichia coli BL21-AI cells using imipinem as substrate.
Test [2] addresses Metallo-beta-lactamase type 2 (Klebsiella pneumoniae) (UniProt C7C422). Kind of test: Inhibition of His-tagged Klebsiella pneumoniae NDM-1 expressed in Escherichia coli BL21-AI cells at 500 uM using imipinem as substrate.
For test [3] the target is unchanged. Kind of test: Ratio of IC50 for inhibition of His-tagged Klebsiella pneumoniae NDM-1 expressed in Escherichia coli BL21-AI cells using imipinem as substrate to Kd for Binding affinity to His-tagged Klebsiella pneumoniae NDM-1 expressed in Escherichia coli BL21-AI cells by surface plasmon resonance assay.
Test [4] addresses T1, Metallo-beta-lactamase type 2. Kind of test: Binding affinity to His-tagged Klebsiella pneumoniae NDM-1 expressed in Escherichia coli BL21-AI cells by surface plasmon resonance assay. On the technique in general: Surface plasmon resonance follows binding to a sensor surface in real time, without labels.
Test [5] shares this target. Kind of test: Competitive inhibition of His-tagged Klebsiella pneumoniae NDM-1 expressed in Escherichia coli BL21-AI cells using imipinem as substrate.

What is called inhibition is the drop in the measured response relative to a control, in per cent. Higher therefore signals a strong effect. The Kd is the concentration at which binding is half-saturated. Low readings indicate a tighter complex, high ones a looser complex. The Ki is a measure of affinity in units of concentration, obtained from inhibition or displacement. Lower therefore signals higher affinity.

The structures appear in SMILES notation.

Metallo-beta-lactamase type 2 (Klebsiella pneumoniae), sequence (C7C422 whole entry): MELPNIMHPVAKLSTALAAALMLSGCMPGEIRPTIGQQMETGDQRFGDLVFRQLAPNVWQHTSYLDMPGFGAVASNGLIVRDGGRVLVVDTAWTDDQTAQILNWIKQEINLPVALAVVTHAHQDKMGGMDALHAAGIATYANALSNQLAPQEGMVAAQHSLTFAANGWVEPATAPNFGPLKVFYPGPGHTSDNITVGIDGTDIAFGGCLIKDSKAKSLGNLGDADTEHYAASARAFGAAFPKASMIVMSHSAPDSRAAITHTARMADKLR
T1 sequence (C7C422 whole entry): as above

Turning to `CCCc1ccc(C(=O)CCC(=O)O)cc1`, the IC50 in test [1] (read-out: IC50) worked out at 3110 µM. The same compound had an inhibition in test [2] greater than 20%. Besides, the Ratio in test [3] came out at 1.5. In test [4], this compound registered an equilibrium dissociation constant (Kd) of 2100 µM.
`C[C@@H](O)[C@H]1C(=O)N2C(C(=O)O)=C(S[C@@H]3CN[C@H](C(=O)N(C)C)C3)[C@H](C)[C@H]12` [MEROPENEM] came in with a dissociation constant Kd in test [4] of 11 µM.
Turning to `N#Cc1coc2ccccc2c1=O`, in test [1] (read-out: IC50), the IC50 turned out to be 480 µM. Further, the inhibitory constant (Ki) in test [5] stood at 186 µM. Besides, the inhibition in test [2] is greater than 20%. The Ratio in test [3] is 1.5. The compound further returned a dissociation constant (Kd) in test [4] of 181 µM.
`O=C(O)CCCc1c[nH]c2ccccc12`: in test [1] (read-out: IC50), the IC50 is 1950 µM. This compound also registered an inhibition in test [2] greater than 20%. Besides, the Ratio in test [3] stood at 1.5. For the same compound, in test [4], binding was characterised by a dissociation constant (Kd) of 806 µM.
`O=C(O)CSc1ccnc2cc(Cl)ccc12`: the IC50 in test [1] (read-out: IC50) is 1240 µM; in test [1] (read-out: pIC50 (converted)), 1070 µM. For the same compound, the inhibition in test [2] is greater than 20%. In test [3], the Ratio was found to be 1.5. In test [4], this compound registered a Kd of 804 µM.

These data come from ChEMBL document CHEMBL3785049, “Fragment-based discovery of inhibitor scaffolds targeting the metallo-β-lactamases NDM-1 and VIM-2” (Bioorg Med Chem Lett, 2016).
